From US12559492B2, “BRAF degraders” (C4 Therapeutics, Inc., priority 2020, dated 2026)

Biological target: BRAF^V600E protein (Homo sapiens, UniProt P15056, V600E)
Assay: HiBiT cellular BRAF V600E degradation assay
Format: cell-based
Conditions: 24 h incubation; for DC50: A375.10 cells (HiBiT tag knocked in at N-terminal of BRAF V600E), concentration at which 50% of total cellular BRAF V600E is degraded; for Emax: read-out: HiBit 24 h Emax
[1] = A375.10 cells, Emax = amount of residual protein remaining in the cell after compound treatment

Sequence of BRAF^V600E protein (P15056 whole entry V600E): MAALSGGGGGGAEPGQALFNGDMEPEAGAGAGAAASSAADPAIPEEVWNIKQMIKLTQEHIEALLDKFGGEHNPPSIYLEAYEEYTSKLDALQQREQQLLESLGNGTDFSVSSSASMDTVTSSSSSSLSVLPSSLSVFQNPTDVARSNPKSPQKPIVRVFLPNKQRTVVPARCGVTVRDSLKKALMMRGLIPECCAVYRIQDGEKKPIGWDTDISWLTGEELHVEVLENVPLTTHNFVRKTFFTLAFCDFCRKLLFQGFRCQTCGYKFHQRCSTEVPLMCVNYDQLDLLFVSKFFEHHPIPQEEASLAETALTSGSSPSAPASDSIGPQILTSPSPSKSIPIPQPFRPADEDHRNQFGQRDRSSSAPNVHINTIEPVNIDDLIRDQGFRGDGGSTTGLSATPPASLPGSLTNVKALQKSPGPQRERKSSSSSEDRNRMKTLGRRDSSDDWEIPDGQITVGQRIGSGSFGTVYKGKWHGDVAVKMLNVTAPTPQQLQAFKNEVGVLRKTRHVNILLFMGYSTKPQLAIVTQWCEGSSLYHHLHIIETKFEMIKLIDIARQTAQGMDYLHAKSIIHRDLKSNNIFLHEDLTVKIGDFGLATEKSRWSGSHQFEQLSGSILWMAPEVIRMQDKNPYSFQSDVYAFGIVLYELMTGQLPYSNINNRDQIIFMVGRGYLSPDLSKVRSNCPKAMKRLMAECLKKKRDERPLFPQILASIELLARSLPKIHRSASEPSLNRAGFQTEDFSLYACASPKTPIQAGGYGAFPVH

Compound | DC50 | Emax [1] | HiBit 24 h Emax [1]
CCN(C)S(=O)(=O)Nc1ccc(F)c(C(=O)c2c[nH]c3ncc(-c4cnc(N5CCN(C(=O)CN6CCC(c7c(F)cc(NC8CCC(=O)NC8=O)cc7F)CC6)CC5)nc4)cc23)c1F (stereo not shown) [Example 46, 5-[2-[4-[2-[4-[4-[(2,6-dioxo-3-piperidyl)amino]-2,6-difluoro-phenyl]-1-piperidyl]acetyl]piperazin-1-yl]pyrimidin-5-yl]-3-[3-[[ethyl(methyl)sulfamoyl]amino]-2,6-difluoro-benzoyl]-1H-pyrrolo[2,3-b]pyridine] | 9.1 nM | 7.88% | –
CCN(C)S(=O)(=O)Nc1ccc(F)c(C(=O)c2c[nH]c3ncc(-c4cnc(N5CCN(C(=O)CN6CC7(C6)CN(c6ccc(NC8CCC(=O)NC8=O)cc6)C7)CC5)nc4)cc23)c1F (stereo not shown) [Example 49, 5-[2-[4-[2-[2-[4-[(2,6-dioxo-3-piperidyl)amino]phenyl]-2,6-diazaspiro[3.3]heptan-6-yl]acetyl]piperazin-1-yl]pyrimidin-5-yl]-3-[3-[[ethyl(methyl)sulfamoyl]amino]-2,6-difluoro-benzoyl]-1H-pyrrolo[2,3-b]pyridine] | 24.9 nM | 17.5% | –
CCN(C)S(=O)(=O)Nc1ccc(F)c(C(=O)c2c[nH]c3ncc(-c4cnc(N5CCN(C(=O)CN6CC[C@@H](c7ccc(NC8CCC(=O)NC8=O)cc7)C(F)(F)C6)CC5)nc4)cc23)c1F (stereo partly drawn) [Example 54, 5-[2-[4-[2-[(4S)-4-[4-[(2,6-dioxo-3-piperidyl)amino]phenyl]-3,3-difluoro-1-piperidyl]acetyl]piperazin-1-yl]pyrimidin-5-yl]-3-[3-[[ethyl(methyl)sulfamoyl]amino]-2,6-difluoro-benzoyl]-1H-pyrrolo[2,3-b]pyridine] | 4.72 nM | 6.94% | –
CCN(C)S(=O)(=O)Nc1ccc(F)c(C(=O)c2c[nH]c3ncc(-c4cnc(N5CCN(C(=O)CN6CC[C@H](c7ccc(NC8CCC(=O)NC8=O)cc7)C(F)(F)C6)CC5)nc4)cc23)c1F (stereo partly drawn) [Example 55, 5-[2-[4-[2-[(4R)-4-[4-[(2,6-dioxo-3-piperidyl)amino]phenyl]-3,3-difluoro-1-piperidyl]acetyl]piperazin-1-yl]pyrimidin-5-yl]-3-[3-[[ethyl(methyl)sulfamoyl]amino]-2,6-difluoro-benzoyl]-1H-pyrrolo[2,3-b]pyridine] | 4.61 nM | – | 6.57%
CCN(C)S(=O)(=O)Nc1ccc(F)c(C(=O)c2c[nH]c3ncc(-c4cnc(N5CCN(C(=O)CC6CCN(c7ccc8c(N9CCC(=O)NC9=O)nn(C)c8c7)CC6)CC5)nc4)cc23)c1F [Example 56, 3-(2,4-dioxohexahydropyrimidin-1-yl)-6-[4-[2-[4-[5-[3-[3-[[ethyl(methyl)sulfamoyl]amino]-2,6-difluoro-benzoyl]-1H-pyrrolo[2,3-b]pyridin-5-yl]pyrimidin-2-yl]piperazin-1-yl]-2-oxo-ethyl]-1-piperidyl]-1-methyl-indazole] | 5.12 nM | 14.3% | –
CCN(C)S(=O)(=O)Nc1ccc(F)c(C(=O)c2c[nH]c3ncc(-c4cnc(N5CCN(C(=O)CC6(O)CCN(c7ccc(NC8CCC(=O)NC8=O)cc7F)CC6)CC5)nc4)cc23)c1F (stereo not shown) [Example 59, 5-[2-[4-[2-[1-[4-[(2,6-dioxo-3-piperidyl)amino]-2-fluoro-phenyl]-4-hydroxy-4-piperidyl]acetyl]piperazin-1-yl]pyrimidin-5-yl]-3-[3-[[ethyl(methyl)sulfamoyl]amino]-2,6-difluoro-benzoyl]-1H-pyrrolo[2,3-b]pyridine] | 2.41 nM | 8.84% | –
CCN(C)S(=O)(=O)Nc1ccc(F)c(C(=O)c2c[nH]c3ncc(-c4cnc(N5CCN(C(=O)CN6CCC(c7ccc8c(N9CCC(=O)NC9=O)nn(C)c8c7)C(F)(F)C6)CC5)nc4)cc23)c1F (stereo not shown) [Example 61, 3-(2,4-dioxohexahydropyrimidin-1-yl)-6-[1-[2-[4-[5-[3-[3-[[ethyl(methyl)sulfamoyl]amino]-2,6-difluoro-benzoyl]-1H-pyrrolo[2,3-b]pyridin-5-yl]pyrimidin-2-yl]piperazin-1-yl]-2-oxo-ethyl]-3,3-difluoro-4-piperidyl]-1-methyl-indazole] | 3.75 nM | 7.83% | –
CCN(C)S(=O)(=O)Nc1ccc(F)c(C(=O)c2c[nH]c3ncc(-c4cnc(N5CC6(CN(C(=O)CN7CCC(c8ccc(NC9CCC(=O)NC9=O)cc8)CC7)C6)C5)nc4)cc23)c1F (stereo not shown) [Example 64, 5-[2-[2-[2-[4-[4-[(2,6-dioxo-3-piperidyl)amino]phenyl]-1-piperidyl]acetyl]-2,6-diazaspiro[3.3]heptan-6-yl]pyrimidin-5-yl]-3-[3-[[ethyl(methyl)sulfamoyl]amino]-2,6-difluoro-benzoyl]-1H-pyrrolo[2,3-b]pyridine] | 7.21 nM | 9.33% | –
CCN(C)S(=O)(=O)Nc1ccc(F)c(C(=O)c2c[nH]c3ncc(-c4cnc(N5CCN(C(=O)CN6CCC(c7ccc(NC8CCC(=O)NC8=O)cc7)CC6)CC5)nc4)c(C)c23)c1F (stereo not shown) [Example 65, 5-[2-[4-[2-[4-[4-[(2,6-dioxo-3-piperidyl)amino]phenyl]-1-piperidyl]acetyl]piperazin-1-yl]pyrimidin-5-yl]-3-[3-[[ethyl(methyl)sulfamoyl]amino]-2,6-difluoro-benzoyl]-4-methyl-1H-pyrrolo[2,3-b]pyridine] | 9.97 nM | 3.79% | –
CCN(C)S(=O)(=O)Nc1ccc(F)c(C(=O)c2c[nH]c3ncc(-c4cnc(N5CCN(C(=O)CN6CCC(c7ccc(NC8CCC(=O)NC8=O)cc7)CC6)CC5)nc4)c(F)c23)c1F (stereo not shown) [Example 66, 5-[2-[4-[2-[4-[4-[(2,6-dioxo-3-piperidyl)amino]phenyl]-1-piperidyl]acetyl]piperazin-1-yl]pyrimidin-5-yl]-3-[3-[[ethyl(methyl)sulfamoyl]amino]-2,6-difluoro-benzoyl]-4-fluoro-1H-pyrrolo[2,3-b]pyridine] | 3.06 nM | 8.1% | –

More lines, in order of falling DC50, values ahead:

DC50 | Emax [1] | HiBit 24 h Emax [1] | Compound
40.2 nM | 11.8% | – | CCN(C)S(=O)(=O)Nc1ccc(F)c(C(=O)c2c[nH]c3ncc(-c4cnc(N5CCCN(C(=O)CN6CCC(c7ccc(NC8CCC(=O)NC8=O)cc7)CC6)CC5)nc4)cc23)c1F (stereo not shown) [Example 63, 5-[2-[4-[2-[4-[4-[(2,6-dioxo-3-piperidyl)amino]phenyl]-1-piperidyl]acetyl]-1,4-diazepan-1-yl]pyrimidin-5-yl]-3-[3-[[ethyl(methyl)sulfamoyl]amino]-2,6-difluoro-benzoyl]-1H-pyrrolo[2,3-b]pyridine]
23 nM | 15% | – | CCN(C)S(=O)(=O)Nc1ccc(F)c(C(=O)c2c[nH]c3ncc(-c4cnc(N5CCN(C(=O)CC6CCN(c7ccc(NC8CCC(=O)NC8=O)cc7F)C6)CC5)nc4)cc23)c1F (stereo not shown) [Example 48, 5-[2-[4-[2-[1-[4-[(2,6-dioxo-3-piperidyl)amino]-2-fluoro-phenyl]pyrrolidin-3-yl]acetyl]piperazin-1-yl]pyrimidin-5-yl]-3-[3-[[ethyl(methyl)sulfamoyl]amino]-2,6-difluoro-benzoyl]-1H-pyrrolo[2,3-b]pyridine]
10.1 nM | 18.2% | – | CCN(C)S(=O)(=O)Nc1ccc(F)c(C(=O)c2c[nH]c3ncc(-c4cnc(N5CCN(C(=O)CC6(O)CCN(c7ccc(NC8CCC(=O)NC8=O)cn7)CC6)CC5)nc4)cc23)c1F (stereo not shown) [Example 57, 5-[2-[4-[2-[1-[5-[(2,6-dioxo-3-piperidyl)amino]-2-pyridyl]-4-hydroxy-4-piperidyl]acetyl]piperazin-1-yl]pyrimidin-5-yl]-3-[3-[[ethyl(methyl)sulfamoyl]amino]-2,6-difluoro-benzoyl]-1H-pyrrolo[2,3-b]pyridine]
5.51 nM | 6.09% | – | CCN(C)S(=O)(=O)Nc1ccc(F)c(C(=O)c2c[nH]c3ncc(-c4cnc(N5CCN(C(=O)CC6(O)CCN(c7ccc(NC8CCC(=O)NC8=O)cc7F)C6)CC5)nc4)cc23)c1F (stereo not shown) [Example 51, 5-[2-[4-[2-[1-[4-[(2,6-dioxo-3-piperidyl)amino]-2-fluoro-phenyl]-3-hydroxy-pyrrolidin-3-yl]acetyl]piperazin-1-yl]pyrimidin-5-yl]-3-[3-[[ethyl(methyl)sulfamoyl]amino]-2,6-difluoro-benzoyl]-1H-pyrrolo[2,3-b]pyridine]
5.38 nM | 19.3% | – | CCN(C)S(=O)(=O)Nc1ccc(F)c(C(=O)c2c[nH]c3ncc(-c4cnc(N5CCN(C(=O)CC6CCN(c7ccc8c(C9CCC(=O)NC9=O)nn(C)c8c7)CC6)CC5)nc4)cc23)c1F (stereo not shown) [Example 47, 3-(2,6-dioxo-3-piperidyl)-6-[4-[2-[4-[5-[3-[3-[[ethyl(methyl)sulfamoyl]amino]-2,6-difluoro-benzoyl]-1H-pyrrolo[2,3-b]pyridin-5-yl]pyrimidin-2-yl]piperazin-1-yl]-2-oxo-ethyl]-1-piperidyl]-1-methyl-indazole]
4.57 nM | 7.42% | – | CCN(C)S(=O)(=O)Nc1ccc(F)c(C(=O)c2c[nH]c3ncc(-c4cnc(N5CCN(C(=O)Cc6ccc(N7CCN(C8CCC(=O)NC8=O)C(=O)C7)cc6)CC5)nc4)cc23)c1F (stereo not shown) [Example 50, 5-[2-[4-[2-[4-[4-(2,6-dioxo-3-piperidyl)-3-oxo-piperazin-1-yl]phenyl]acetyl]piperazin-1-yl]pyrimidin-5-yl]-3-[3-[[ethyl(methyl)sulfamoyl]amino]-2,6-difluoro-benzoyl]-1H-pyrrolo[2,3-b]pyridine]
4.25 nM | 9.42% | – | CCN(C)S(=O)(=O)Nc1ccc(F)c(C(=O)c2c[nH]c3ncc(-c4cnc(N5CCN(C(=O)CC6(O)CCN(c7ncc(NC8CCC(=O)NC8=O)cc7F)CC6)CC5)nc4)cc23)c1F (stereo not shown) [Example 58, 5-[2-[4-[2-[1-[5-[(2,6-dioxo-3-piperidyl)amino]-3-fluoro-2-pyridyl]-4-hydroxy-4-piperidyl]acetyl]piperazin-1-yl]pyrimidin-5-yl]-3-[3-[[ethyl(methyl)sulfamoyl]amino]-2,6-difluoro-benzoyl]-1H-pyrrolo[2,3-b]pyridine]
